Reference: the Biogen ADME set (Fang et al. 2023)
Converted amounts (≈) assume the structure as drawn.

Settings: for aqueous solubility: pH 6.8

| Structure (SMILES) | MDR1-MDCK efflux ratio | intrinsic clearance, human liver microsomes [mL/min/kg] | intrinsic clearance, rat liver microsomes [mL/min/kg] | aqueous solubility [µg/mL] | fraction unbound, human plasma | fraction unbound, rat plasma |
| --- | --- | --- | --- | --- | --- | --- |
| CN(C)CCNc1c2c(c(C#N)c3nc4ccccc4n13)CCCC2 | 2.57 | 24 | 270 | 36 (≈ 108 µM) | – | – |
| CC(C)(C)C(=O)Nc1sc2c(c1C#N)CCC2 | – | – | – | 1.91 (≈ 7.69 µM) | – | – |
| Cc1ccc(NC(=O)CN2CCCC(c3nc4ccccc4o3)C2)cc1C (centres undefined) | 1.08 | 216 | 2610 | 10 (≈ 27.5 µM) | – | – |
| O=C(NCC#CCN1CCc2ccccc2C1)NCc1ccc(F)cc1 | 4 | 79.7 | 545 | 33.5 (≈ 95.2 µM) | – | – |
| CN(CCSc1ccc2nnnn2n1)Cc1ccccc1 | 0.431 | 64.7 | ≤ 10.7 | – | – | – |
| CCOc1ccc(CC(=O)N2CCC3(CC2)Nc2cc(C)ccc2-n2cccc23)cc1OCC | – | 187 | 956 | – | – | – |
| Cc1ccc(=O)n(CC2(O)CCN(Cc3cccs3)CC2)n1 | 4.22 | ≤ 4.74 | 161 | – | – | – |
| CCCCCNC(=N)N/N=C/c1c[nH]c2ccc(OC)cc12 | 72 | 10.3 | 182 | 30.1 (≈ 100 µM) | – | – |
| CCOc1ccccc1CNCCc1c[nH]c2ccccc12 | 3.34 | 127 | 2170 | 39.6 (≈ 135 µM) | – | – |
| CCN(C(=O)CO)[C@H]1CN(/C(=N\C#N)Nc2cccc(OC(F)F)c2)N=C1c1ccc(Cl)c(Cl)c1 | – | 45 | 184 | 2.33 (≈ 4.44 µM) | – | – |
| Cc1nc(Cn2nnnc2C(C)(C)C)nc2ccccc12 | – | 7.42 | 724 | – | – | – |
| COc1c(C)cnc(Cn2cnc3c(Cl)nc(N)nc32)c1C | – | 8.46 | 72.9 | – | – | – |
| COc1ccc(CC2CN3CCN(C(=O)OCc4ccccc4)CC3CO2)cc1 (centres undefined) | 0.797 | 33.2 | 861 | – | – | – |
| O=C(NCCNC(=O)c1cc(-c2ccccc2)nc2ccccc12)c1ccco1 | 10 | 58.6 | 461 | 37.6 (≈ 97.7 µM) | – | – |
| c1cnc(NCc2cccc3cnccc23)nc1 | – | 60.5 | 178 | – | – | – |
| Cc1cc(Nc2ccc3c(c2)oc(=O)n3C)nc(C2CC2)n1 | 0.717 | 23.9 | 159 | 5.34 (≈ 18 µM) | – | – |
| Cc1sc2ncnc(N3CCC(C(=O)Nc4ccccn4)CC3)c2c1C | – | – | – | 1.85 (≈ 5.03 µM) | – | – |
| CCCN(C(=O)c1ccccc1N)C(C)C | – | ≤ 4.74 | 342 | – | – | – |
| CCOc1ccccc1NC(=O)C(=O)NCc1ccccc1F | – | – | – | 0.34 (≈ 1.07 µM) | – | – |
| COCC(=O)NC1(C#Cc2ccc(NC(=O)C3CC3)nc2)CCCCC1 | – | 16.7 | 153 | – | – | – |
| CC(=O)N1CCN(C(=O)[C@H]2CCCCN2C(=O)OC(C)(C)C)CC1 | 9.44 | ≤ 4.74 | ≤ 10.7 | 113 (≈ 333 µM) | – | – |
| O=C(NCCc1cnn(-c2ccccc2)c1)N1CCC1 | 1.34 | ≤ 4.74 | 54.8 | 39.6 (≈ 146 µM) | – | – |

| Structure (SMILES) | MDR1-MDCK efflux ratio | intrinsic clearance, human liver microsomes [mL/min/kg] | intrinsic clearance, rat liver microsomes [mL/min/kg] | aqueous solubility [µg/mL] | fraction unbound, human plasma | fraction unbound, rat plasma |
| --- | --- | --- | --- | --- | --- | --- |
| O=C1NC(c2ccccc2)=N/C1=C/c1ccc2c(c1)OCO2 | – | – | – | 0.31 (≈ 1.06 µM) | – | – |
| O=C(NCc1ccc(-n2cncn2)nc1)c1csc2c1CCCC2 | 0.992 | 22.1 | 196 | 5.3 (≈ 15.6 µM) | – | – |
| Cc1cc(C)cc(C(=O)NCCCNc2ncccn2)c1 | – | – | – | 52.5 (≈ 185 µM) | – | – |
| CC(C)n1nccc1-c1ncccc1COc1cccc(O)c1C=O | – | 150 | 716 | 37.9 (≈ 112 µM) | – | – |
| CCCN(CC)c1ccc(C(=O)N2CCCN(C(C)=O)CC2)cc1 | 6.92 | 25.7 | 308 | 48.4 (≈ 146 µM) | – | – |
| CC(COc1ccccc1Cc1ccccc1)N1CCCCC1 (centres undefined) | 1.3 | 12.5 | 2880 | – | – | – |
| O=c1c2ccccc2cnn1Cc1cccc(OCC(F)(F)F)c1 | 35.9 | ≤ 4.74 | 51.3 | – | – | – |
| Cc1cccc(-n2c(S)nnc2CNc2ccc(F)cc2)c1 | 2.44 | 17.2 | 188 | 50.2 (≈ 160 µM) | – | – |
| Cc1cccc(C)c1CNC1(CCO)CCOCC1 | 0.972 | ≤ 4.74 | 74.3 | – | – | – |
| CN(Cc1ccc(CO)cc1)Cc1cc(F)c(F)c(F)c1 | 0.425 | 54 | 371 | – | – | – |
| OC1(Cn2nnc(-c3cccnc3)n2)CCCCC1 | 0.66 | ≤ 4.74 | 142 | 25.1 (≈ 96.7 µM) | – | – |
| COc1ccncc1NCc1cscn1 | – | ≤ 4.74 | 25.4 | – | – | – |
| COCCOc1ccc2c(c1)ncn2-c1ccc2cccc(N3CCC(N)CC3)c2n1 | – | 14.7 | 258 | 30.4 (≈ 72.7 µM) | – | – |
| Cc1ccc(C(=O)NC[C@H]2Cn3ccnc3CO2)cc1 | 7.94 | ≤ 4.74 | ≤ 10.7 | 30.4 (≈ 112 µM) | – | – |
| Cc1ccc(CNC(=O)c2cccnc2)n1C | 0.67 | ≤ 4.74 | ≤ 10.7 | 40.6 (≈ 177 µM) | – | – |
| c1ccc(Oc2cccc(CN(CCN3CCOCC3)Cc3cccnc3)c2)cc1 | 1.33 | 1250 | 3870 | 66.7 (≈ 165 µM) | 0.00599 | 0.0139 |
| OC(Cn1cncn1)(Cn1cncn1)c1ccc(F)cc1F | 5.25 | ≤ 4.74 | ≤ 10.7 | 42.9 (≈ 140 µM) | – | – |
| O=c1[nH]c2ccccc2n1C1CCN(S(=O)(=O)Cc2ccccc2)CC1 | – | 79.4 | 6660 | 2.65 (≈ 7.13 µM) | – | – |
| NC(=O)COc1ccccc1-c1ccccc1 | 0.621 | 25.9 | 75.6 | 39 (≈ 172 µM) | – | – |
| Cc1cc(C)c(-c2csc(CC(N)=O)n2)cc1C | 0.831 | – | – | – | – | – |
| O=C1CN(C(=O)c2ccc(Cl)cn2)CCN1CCc1ccccc1 | 1.1 | 7.25 | 499 | – | – | – |
| N#Cc1cc(-c2n[nH]c(-c3ccncc3)n2)ccn1 | 4.87 | 8.89 | 129 | 14.3 (≈ 57.5 µM) | – | – |
